“Also recorded” adds a separate entry of the source.
Key:
[1] = Activated ABTS antioxidant assay (absorbance at 405 nm, Trolox calibration); type: biochemical
Method: The Brevibacillus laterosporus fermentate was prepared as described in Example 2, using TSB media (1.7% Tryptone, 0.3% Soytone, 0.25% Glucose, 0.5% sodium chloride, 0.25% Potassium phosphate Dibasic) as the growing solution. The fermentate supernatant was first let flow through an Amicon® Ultra Centrifugal Filters with a size cutoff of 30 kDa. The permeate (which was essentially free of cells) was kept and then let flow through another Amicon® Ultra Centrifugal Filters with a size cutoff of 3 kDa. The retentate was concentrated by 10-fold in volume and stored as the final product (i.e., size is greater than 3 kDa and less than 30 kDa), referring as the concentrated fermentate in the subsequent experiments. The 10-fold concentrated fermentate was dosed separately at 2 weight percent into the serum (Table 2) and hydrogel (Table 3) formulations with xanthan gum.
The water-soluble analogue of α-Tocopherol, Trolox, is often used as a reference for characterization the antioxidant properties of a new ingredient in the assay (Reference: “Huang, S. W., Hopia, A., Schwarz, K., Frankel, E. N., & German, J. B. (1996). Antioxidant activity of α-tocopherol and trolox in different lipid substrates: bulk oils vs oil-in-water emulsions. Journal of Agricultural and Food Chemistry, 44 (2), 444-452.”).
A series of Trolox with different concentrations were used as the calibration curve for quantifying the antioxidant properties.
Table 5 summarizes the measured absorbance and the corresponding trolox equivalent (calculated from the Trolox calibration curve) of the fermentate and fermentate-dosed formulations.

[2] = Foam stabilizing test (foam height in 50-ml conical tube); type: physicochemical; design: unit not given beside the values
Method: Foam stabilizing capabilities of the Brevibacillus laterosporus A8.11 fermentate supernatant (cell free supernatant) were evaluated in the presence of different categories of surfactants and detergents commonly found in home and personal care cleaning formulations. To evaluate this, a solution of a 1% non-ionic detergent (Tergitol 15-S-7) and a 1% solution of anionic surfactant (Sodium lauroyl sarcosinate) were each prepared with 10% cell free supernatant in a 50-ml conical tube with deionized water for a final volume of 10-mL. Control samples were prepared individually as 1% non-ionic detergent only, 1% anionic surfactant only and 10% cell free supernatant only in 50-ml conical tubes with deionized water for a final volume of 10-mL. All samples were shaken for 30 seconds by hand and left at room temperature to observe foam height. Foam height was measured by the marking on a 50-ml conical tube and subtracted by 10, where a value of 40 is the maximum foam height and a value of 0 indicates no foam. Foam stabilization was defined as the ability to maintain the starting foam height over multiple timepoints.

[3] = tested on: Pseudomonas aeruginosa (ATCC #15442); assay: Polylysine control of Pseudomonas aeruginosa with or without Acumer 4200 (visual turbidity); type: cell-based; details: 37 C overnight
Method: The ability of Polylysine, a known cationic peptide-based food preservative, to suppress the growth of Pseudomonas aeruginosa in the presence and absence of the anionic polymer Acumer 4200 was also evaluated. The test was conducted in scintillation vials inoculated with a 1:100 dilution from an overnight of Pseudomonas aeruginosa (ATCC #15442) allowed to incubate at 37 C overnight. The readout was visual with turbidity as an indicator of Pseudomonas growth.

[4] = Foam enhancing test (foam height in 50-ml conical tube); type: physicochemical; design: key: tube marking minus 10 (mL scale); 0 = no foam, 40 = maximum
Method: Foam enhancing capabilities of the Brevibacillus laterosporus A8.11 fermentate supernatant (cell free supernatant) were evaluated in the presence of different categories of surfactants and detergents commonly found in home and personal care cleaning formulations. To evaluate this, a solution of 1% zwitterionic detergent (CHAPS hydrate), 1% solution of the glycolipid biosurfactant type 1 (acidic sophorolipids non-acetylated), a 0.1% solution of glycolipid biosurfactant type 2 (lactonic (di-acetylated) sophorolipids), and 0.1% of the anionic/non-ionic detergent were each prepared with 10% cell free supernatant in a 50-ml conical tube with deionized water for a final volume of 10-mL. Control samples were prepared individually as 1% zwitterionic detergent, 1% solution of the glycolipid biosurfactant type 1, a 0.1% solution of glycolipid biosurfactant type 2, 0.1% of the anionic/non-ionic detergent and 10% cell free supernatant only in a 50-ml conical tube with deionized water for a final volume of 10-mL. All samples were shaken for 30 seconds by hand and left at room temperature to observe foam height. Foam height was measured by the marking on a 50-ml conical tube and subtracted by 10, where a value of 40 is the maximum foam height and a value of 0 indicates no foam.

[5] = Time 0, 10-mL in deionized water, shaken 30 seconds, 40 = maximum

| Compound | Foam Height [4, 5] | Foam Height ([4]; Time 1 min) | Foam Height ([4]; Time 5 min) | Foam Height ([4]; Time 15 min) | Foam Height ([4]; Time 30 min) | Foam Height ([4]; Time 3 hours) | Foam Height ([4]; Time 24 hours) | further results |
| --- | --- | --- | --- | --- | --- | --- | --- | --- |
| Cc1c(C)c2c(c(C)c1O)CCC(C)(C(=O)O)O2 (stereo not drawn) [Trolox] | – | – | – | – | – | – | – | Measured absorbance ([1]; Trolox 4.7 μM): 1.16; Measured absorbance ([1]; Trolox 9.4 μM): 1.13; Measured absorbance ([1]; Trolox 18.75 μM): 1.09; Measured absorbance ([1]; Trolox 37.5 μM): 0.97; Measured absorbance ([1]; Trolox 75 μM): 0.77; Measured absorbance ([1]; Trolox 150 μM): 0.38 |
| Tergitol 15-S-7 [Non-ionic Detergent] | – | – | – | – | – | – | – | Foam Height [2, 5]: 37.5; Foam Height ([2]; Time 1 min): 37.5; Foam Height ([2]; Time 5 min): 36; Foam Height ([2]; Time 15 min): 22.5; Foam Height ([2]; Time 30 min): 20; Foam Height ([2]; Time 3 hours): 14; Foam Height ([2]; Time 24 hours): 2 |
| Polylysine | – | – | – | – | – | – | – | Visual Inspection ([3]; TSB growth medium with Acumer 4200 and polylysine): does not function as an antimicrobial; also recorded: Turbid; Visual Inspection ([3]; TSB growth medium with the substance alone): able to suppress microbial growth; also recorded: Clear (polylysine prevented growth) |
| lactonic (di-acetylated) sophorolipids [Glycolipid Biosurfactant Type-2] | 2.5 | 2.5 | 2 | 1 | 1 | 0 | 0 | – |
| acidic sophorolipids non-acetylated [Glycolipid Biosurfactant Type-1] | 2.5 | 1 | 1 | 1 | 1 | 0 | 0 | – |
| C[C@H](CCC(=O)NCCC[N+](C)(C)CCCS(=O)(=O)[O-])[C@H]1CC[C@H]2[C@@H]3[C@H](O)C[C@@H]4C[C@H](O)CC[C@]4(C)[C@H]3C[C@H](O)[C@]12C.O [Zwitterionic Detergent, CHAPS hydrate] | 15 | 2.5 | 0 | 0 | 0 | 0 | 0 | – |

From patent publication US20250281388A1, “COMPOSITIONS COMPRISING BREVIBACILLA MULTIFUNCTIONAL FERMENTATES AND METHODS OF USE” (Nutrition & Biosciences USA 4, Inc., priority 2022, published 2025)
